In ChEMBL document CHEMBL1155817, “Hanultarin, a cytotoxic lignan as an inhibitor of actin cytoskeleton polymerization from the seeds of Trichosanthes kirilowii” (Bioorg Med Chem, 2008):
≈ marks a conversion by molar mass, not a printed value. Calls of active or inactive are those of the source. The rule behind the calls is not given here.

Tests used:
HaCaT [1] = test: Inhibition of actin polymerization in human HaCaT cells assessed as aggregate-like structure at 1 ug/mL by immunofluorescence technique; type: cell-based
A549 = test: Cytotoxicity against human A549 cells after 48 hrs by SRB assay; type: functional, cell-based; settings: A549, 48 h
HaCaT [2] = test: Inhibition of actin polymerization in human HaCaT cells assessed as aggregate-like structure at 40 ug/mL by immunofluorescence technique; type: cell-based
[3] = Cytotoxicity against mouse B16F1 cells after 48 hrs by SRB assay; type: functional, cell-based; settings: B16-F1, 48 h
SK-MEL-2 = test: Cytotoxicity against human SK-MEL-2 cells after 48 hrs by SRB assay; type: functional, cell-based; settings: SK-MEL-2, 48 h
HaCaT [4] = test: Inhibition of actin polymerization in human HaCaT cells assessed as aggregate-like structure at 12 ug/mL by immunofluorescence technique; type: cell-based
HaCaT [5] = test: Inhibition of actin polymerization in human HaCaT cells assessed as aggregate-like structure by immunofluorescence technique; type: cell-based
HaCaT [6] = test: Inhibition of actin polymerization in human HaCaT cells assessed as aggregate-like structure at 3.5 ug/mL by immunofluorescence technique; type: cell-based

| Compound | Activity (HaCaT [1]) | IC50 (A549) | Activity (HaCaT [2]) | IC50 [3] | IC50 (SK-MEL-2) | Activity (HaCaT [4]) | Activity (HaCaT [5]) | Activity (HaCaT [6]) |
| --- | --- | --- | --- | --- | --- | --- | --- | --- |
| C=C1[C@@H](C)[C@H]2[C@H](Cc3ccccc3)NC(=O)[C@]23[C@H](OC(C)=O)/C=C/[C@@](C)(O)C(=O)[C@@H](C)C/C=C/[C@H]3[C@@H]1O | Active |  |  |  |  |  |  |  |
| COc1cc([C@H]2OC(=O)[C@H]3[C@@H]2CO[C@@H]3c2ccc(O)c(OC)c2)ccc1O |  | > 40 µg/mL | inactive | 13 µg/mL (≈ 34.9 µM) | 20 µg/mL (≈ 53.7 µM) |  |  |  |
| COc1cc(/C=C/C(=O)OC[C@H](Cc2ccc(O)c(OC)c2)[C@H](COC(=O)/C=C/c2ccc(O)c(OC)c2)Cc2ccc(O)c(OC)c2)ccc1O |  | 12 µg/mL (≈ 16.8 µM) |  | 12 µg/mL (≈ 16.8 µM) | 10 µg/mL (≈ 14 µM) | Active |  |  |
| COc1cc(/C=C/C(=O)OC[C@H](Cc2ccc(O)c(OC)c2)[C@H](CO)Cc2ccc(O)c(OC)c2)ccc1O [HANULTARIN] |  | 3 µg/mL (≈ 5.57 µM) |  | 13 µg/mL (≈ 24.1 µM) | 3 µg/mL (≈ 5.57 µM) |  | Dose-dependent effect | Active |
| COc1cc(C[C@@H](CO)[C@H](CO)Cc2ccc(O)c(OC)c2)ccc1O [(+)-SECOISOLARICIRESINOL] |  | > 40 µg/mL | inactive | > 40 µg/mL | > 40 µg/mL |  |  |  |
| COc1cc([C@@H]2OC[C@@H]3[C@H]2CO[C@H]3c2ccc(O)c(OC)c2)ccc1O [(+)-PINORESINOL] |  | > 40 µg/mL | inactive | > 40 µg/mL | > 40 µg/mL |  |  |  |
